Data taken from ChEMBL document CHEMBL1201862, “PubChem BioAssay data set” (2004).
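The compound was tested at five concentrations on cells cultured in 96-well plates, with a 48-hour exposure period. GI50 is the concentration that inhibits growth by half.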 Activity calls are given as the source filed them. Cut-off read from the data, not from the text of the source: active = GI50 up to about 1.1 µM and inactive = higher.

Assays:
Test in all cases: DTP human tumour cell line panel, 48 h
[1] = tested on: OVCAR-4
[2] = tested on: DMS-273
[3] = tested on: M19-MEL
[4] = tested on: SK-MEL-5
[5] = tested on: ACHN
[6] = tested on: A549
[7] = tested on: HCC 2998
[8] = tested on: Malme-3M
[9] = tested on: LXFL 529
[10] = tested on: KM12
[11] = tested on: UACC-257
[12] = tested on: TK-10
[13] = tested on: NCI-H23
[14] = tested on: K562
[15] = tested on: SF-539
[16] = tested on: HCT-15
[17] = tested on: COLO 205
[18] = tested on: OVCAR-5
[19] = tested on: RXF 393
[20] = tested on: HOP-18
[21] = tested on: DMS-114
[22] = tested on: SF-268
[23] = tested on: SF-295
[24] = tested on: HOP-62
[25] = tested on: RXF 631
[26] = tested on: HOP-92
[27] = tested on: CAKI-1
[28] = tested on: HT-29
[29] = tested on: MOLT-4
[30] = tested on: DLD-1
[31] = tested on: M14
[32] = tested on: EKVX
[33] = tested on: CCRF-CEM
[34] = tested on: NCI-H460
[35] = tested on: KM-20L2
[36] = tested on: SN12C
[37] = tested on: IGROV-1
[38] = tested on: SNB-19
[39] = tested on: UO-31
[40] = tested on: SNB-75
[41] = tested on: LOX IMVI
[42] = tested on: OVCAR-3
[43] = tested on: 786-0
[44] = tested on: UACC-62
[45] = tested on: SK-MEL-28
[46] = tested on: SK-OV-3
[47] = tested on: HL-60
[48] = tested on: SW-620
[49] = tested on: OVCAR-8
[50] = tested on: NCI-H522
[51] = tested on: SK-MEL-2
[52] = tested on: U-251
[53] = tested on: RPMI-8226

[O-][S+]1[C@H](c2ccccc2)c2c(-c3ccccc3)sc(-c3ccccc3)c2[C@@H]1c1ccccc1 (stereo partly drawn)
GI50 [1]: 8.49 µM (inactive) | GI50 [2]: > 100 µM (inactive) | GI50 [3]: > 100 µM (inactive) | GI50 [4]: 6.15 µM (inactive) | GI50 [5]: 5.89 µM (inactive) | GI50 [6]: 10.8 µM (inactive) | GI50 [7]: > 100 µM (inactive) | GI50 [8]: 23.4 µM (inactive) | GI50 [9]: > 100 µM (inactive) | GI50 [10]: 12.5 µM (inactive) | GI50 [11]: > 100 µM (inactive) | GI50 [12]: 9.1 µM (inactive) | GI50 [13]: 6.55 µM (inactive) | GI50 [14]: 6.44 µM (inactive) | GI50 [15]: > 100 µM (inactive) | GI50 [16]: 7.1 µM | GI50 [17]: 23.1 µM (inactive) | GI50 [18]: 3.66 µM (inactive) | GI50 [19]: 23.1 µM (inactive) | GI50 [20]: 11.4 µM (inactive) | GI50 [21]: 10.2 µM (inactive) | GI50 [22]: > 100 µM (inactive) | GI50 [23]: > 100 µM (inactive) | GI50 [24]: > 100 µM (inactive) | GI50 [25]: 39 µM (inactive) | GI50 [26]: 2.96 µM (inactive) | GI50 [27]: 15.2 µM (inactive) | GI50 [28]: 41 µM (inactive) | GI50 [29]: 4.75 µM (inactive) | GI50 [30]: 33 µM (inactive) | GI50 [31]: 85.9 µM (inactive) | GI50 [32]: 0.286 µM (active) | GI50 [33]: 89.7 µM (inactive) | GI50 [34]: 17.1 µM (inactive) | GI50 [35]: 5.79 µM (inactive) | GI50 [36]: 25.3 µM (inactive) | GI50 [37]: > 100 µM (inactive) | GI50 [38]: 77.1 µM (inactive) | GI50 [39]: 65.6 µM (inactive) | GI50 [40]: 12.4 µM (inactive) | GI50 [41]: 94.8 µM (inactive) | GI50 [42]: > 100 µM (inactive) | GI50 [43]: 29.3 µM (inactive) | GI50 [44]: 39.6 µM (inactive) | GI50 [45]: 96.6 µM (inactive) | GI50 [46]: > 100 µM (inactive) | GI50 [47]: 4.31 µM (inactive) | GI50 [48]: 13.2 µM (inactive) | GI50 [49]: 8.75 µM (inactive) | GI50 [50]: 3.23 µM (inactive) | GI50 [51]: 32.7 µM (inactive) | GI50 [52]: 9.44 µM (inactive) | GI50 [53]: 6.04 µM (inactive)
